Counter-ions that a name gives are not always drawn.
How the values were obtained:
Eimeria tenella = experiment: chick feeding experiment, Eimeria tenella challenge; type: in vivo, chickens; conditions: 100 ppm in diet; Na salt
From the text: A feeding experiment in young chickens confirms that the deoxynarasin antibiotics have anticoccidial activity in vivo.
^1 Two cages of four chickens each per treatment.
^2 Maximum possible score = 4.00.

solubility = type: physicochemical
stability in alcohols = type: physicochemical; conditions: free acid; e.g. methanol, room temperature, four hours
Protocol: For example, 20-deoxynarasin acid (435.1 mg) was dissolved in methanol (40 ml) and allowed to stand at room temperature for four hours. The solution was then evaporated to dryness under vacuum; the residue was redissolved in dioxane and lyophilized to give 417.8 mg of 20-deoxy-epi-17-narasin acid.

SMILES	mortality (in words) (Eimeria tenella)	number of lesions (in words) (Eimeria tenella)	weight gains (in words) (Eimeria tenella)	solubility (solubility; methanol, ethanol, dimethylformamide, dimethyl sulfoxide, ethyl acetate, chloroform, acetone and benzene)	solubility (solubility; nonpolar organic solvents such as hexane)	solubility (solubility; water)	stability in alcohols (stability in alcohols)
CCC(C(=O)O)C1OC(C(C)C(O)C(C)C(=O)C(CC)C2OC3(C=CCC4(CCC(C)(C5CCC(O)(CC)C(C)O5)O4)O3)C(C)CC2C)C(C)CC1C (stereo not shown) [20-deoxynarasin (Na salt), 20-deoxynarasin]	prevented mortality	decreased the number of lesions	improved weight gains				
CCC(C(=O)O)C1OC(C(C)C(O)C(C)C(=O)C(CC)C2OC3(C=CCC4(CCC(C)(C5CCC(O)(CC)C(C)O5)O4)O3)C(C)CC2C)C(C)CC1C (stereo not shown) [20-deoxynarasin]				soluble	only slightly soluble	insoluble	unstable in alcohols, converting to 20-deoxy-epi-17-narasin free acid

Reference: patent publication US4204039A, “Process for producing deoxynarasin antibiotics” (Eli Lilly and Company, priority 1978, dated 1980)
